In one assay the test system is OF1 mice. The assay is described as follows: Maximal electroshock test (MES Test). Type of assay: in vivo. Conditions: Mus musculus, po; 50 mg/kg, p.o., pre-treatment time −1 h; read-out: %-Protection. Summed up: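 Compound given p.o. (typically 50 mg/kg) 1 h before tonic-clonic convulsions were induced via temporal electrodes (50 Hz, 18 mA, 0.2 s); seizure lasting 3 s or less counted as protection. Read-out is percent protected of five mice per condition; ED50 calculated, blood exposure sampled after shock.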
Background: The maximal electroshock test induces tonic seizures with an electrical stimulus.
On to `CSCCC(=O)N(n1c(=O)[nH]c2cc(C(C)C)c(-c3ccnn3C)cc2c1=O)S(C)(=O)=O` [Example 3.18, N-[7-Isopropyl-6-(2-methyl-2H-pyrazol-3-yl)-2,4-dioxo-1,4-dihydro-2H-quinazolin-3-yl]-N-(3-methylsulfanyl-propionyl)-methanesulfonamide], for which the responders at 50 mg/kg worked out at 100%.

For the molecule `CCC(O)c1cc2c(=O)n(N(C(=O)OCCOC)S(C)(=O)=O)c(=O)[nH]c2cc1C(F)(F)F` (stereo not shown) [Example 12.02, Methanesulfonyl-[6-(1-hydroxy-propyl)-2,4-dioxo-7-trifluoromethyl-1,4-dihydro-2H-quinazolin-3-yl]-carbamic acid 2-methoxy-ethyl ester], the responders at 50 mg/kg stood at 20%.

On to `CCOC(=O)N(n1c(=O)[nH]c2cc(C(F)(F)F)c(-c3ccnn3C(C)C)cc2c1=O)S(C)(=O)=O` [Example 5.06, [6-(2-Isopropyl-2H-pyrazol-3-yl)-2,4-dioxo-7-trifluoromethyl-1,4-dihydro-2H-quinazolin-3-yl]-methanesulfonyl-carbamic acid ethyl ester], for which the responders at 50 mg/kg is 60%.

In the case of `CCOC(=O)N(n1c(=O)[nH]c2cc(C(F)F)c(-c3ccnn3C(C)C)cc2c1=O)S(C)(=O)=O` [Example 6.06, [7-Difluoromethyl-6-(2-isopropyl-2H-pyrazol-3-yl)-2,4-dioxo-1,4-dihydro-2H-quinazolin-3-yl]-methanesulfonyl-carbamic acid ethyl ester], the responders at 50 mg/kg is 60%.

`CC(C)c1cc2[nH]c(=O)n(N(C(=O)CCCOCc3ccccc3)S(C)(=O)=O)c(=O)c2cc1-c1ccnn1C` [Example 3.30, N-(4-Benzyloxy-butyryl)-N-[7-isopropyl-6-(2-methyl-2H-pyrazol-3-yl)-2,4-dioxo-1,4-dihydro-2H-quinazolin-3-yl]-methanesulfonamide]: the responders at 50 mg/kg was 100%.

`CCCOC(=O)N(n1c(=O)c2cc(-c3ccnn3C)c(C(C)C)cc2n(C(=O)OCCC)c1=O)S(C)(=O)=O` [Example 3.34, 7-Isopropyl-3-(methanesulfonyl-propoxycarbonyl-amino)-6-(2-methyl-2H-pyrazol-3-yl)-2,4-dioxo-3,4-dihydro-2H-quinazoline-1-carboxylic acid propyl ester]: the responders at 50 mg/kg worked out at 80%.

Consider `COC(=O)N(n1c(=O)c2cc(-c3ccnn3C)c(C(C)C)cc2n(C(=O)OC)c1=O)S(C)(=O)=O` [Example 3.32, 7-Isopropyl-3-(methoxycarbonyl-methanesulfonyl-amino)-6-(2-methyl-2H-pyrazol-3-yl)-2,4-dioxo-3,4-dihydro-2H-quinazoline-1-carboxylic acid methyl ester], for which the responders at 50 mg/kg came out at 80%.

`COC(=O)N(n1c(=O)[nH]c2cc(C(F)(F)F)c(-c3ccnn3C)cc2c1=O)S(C)(=O)=O` [Example 1.05, Methanesulfonyl-[6-(2-methyl-2H-pyrazol-3-yl)-2,4-dioxo-7-trifluoromethyl-1,4-dihydro-2H-quinazolin-3-yl]-carbamic acid methyl ester]: the responders at 50 mg/kg turned out to be 80%.

Take `CC(C)c1cc2[nH]c(=O)n(N(C(=O)COCc3ccccc3)S(C)(=O)=O)c(=O)c2cc1-c1ccnn1C` [Example 3.29, N-(2-Benzyloxy-acetyl)-N-[7-isopropyl-6-(2-methyl-2H-pyrazol-3-yl)-2,4-dioxo-1,4-dihydro-2H-quinazolin-3-yl]-methanesulfonamide]: the responders at 50 mg/kg was 100%.

Turning to `CCOC(=O)N(n1c(=O)[nH]c2cc(C(F)(F)F)c([C@H]3CCCO3)cc2c1=O)S(C)(=O)=O` [Example 10.05, Methanesulfonyl-N—((R)-2,4-dioxo-6-tetrahydro-furan-2-yl-7-trifluoromethyl-1,4-dihydro-2H-quinazolin-3-yl)-carbamic acid ethyl ester], the responders at 50 mg/kg is 40%.

Take `CCCCCC(=O)N(n1c(=O)[nH]c2cc(C(F)(F)F)c([C@H]3CCCO3)cc2c1=O)S(C)(=O)=O` [Example 10.09, N—((R)-2,4-Dioxo-6-tetrahydro-furan-2-yl-7-trifluoromethyl-1,4-dihydro-2H-quinazolin-3-yl)-N-hexanoyl-methanesulfonamide]: the responders at 50 mg/kg is 60%.

For the molecule `CCCCCC(=O)N(n1c(=O)[nH]c2cc(C(F)(F)F)c(-c3ccnn3C(C)C)cc2c1=O)S(C)(=O)=O` [Example 5.04, N-Hexanoyl-N-[6-(2-isopropyl-2H-pyrazol-3-yl)-2,4-dioxo-7-trifluoromethyl-1,4-dihydro-2H-quinazolin-3-yl]-methanesulfonamide], the responders at 50 mg/kg was 20%.

`CCOC(=O)N(n1c(=O)c2cc(-c3ccnn3C)c(C(C)C)cc2n(C(=O)OCC)c1=O)S(C)(=O)=O` [Example 3.33]: the responders at 50 mg/kg amounted to 80%.

`CCC(=O)N(n1c(=O)c2cc(-c3ccnn3C)c(C(C)C)cc2n(C(=O)CC)c1=O)S(C)(=O)=O` [Example 3.25, N-[7-Isopropyl-6-(2-methyl-2H-pyrazol-3-yl)-2,4-dioxo-1-propionyl-1,4-dihydro-2H-quinazolin-3-yl]-N-propionyl-methanesulfonamide]: the responders at 50 mg/kg came out at 100%.

The assay is the same for the next values; noted with them: Mus musculus, po; Dose: 15 mg/kg, p.o. (footnote c), pre-treatment time −1 h; read-out: %-Protection.
As for `CC(C)COC(=O)N(n1c(=O)c2cc(-c3ccnn3C)c(C(C)C)cc2n(C(=O)OCC(C)C)c1=O)S(C)(=O)=O` [Example 3.04, 3-(Isobutoxycarbonyl-methanesulfonyl-amino)-7-isopropyl-6-(2-methyl-2H-pyrazol-3-yl)-2,4-dioxo-3,4-dihydro-2H-quinazoline-1-carboxylic acid isobutyl ester], the responders at 15 mg/kg worked out at 20%.

On to `CC(=O)OC(C)(C)C(=O)N(n1c(=O)[nH]c2cc(C(C)C)c(-c3ccnn3C)cc2c1=O)S(C)(=O)=O` [Example 3.10, Acetic acid 2-{[7-isopropyl-6-(2-methyl-2H-pyrazol-3-yl)-2,4-dioxo-1,4-dihydro-2H-quinazolin-3-yl]-methanesulfonyl-amino}-1,1-dimethyl-2-oxo-ethyl ester], for which the responders at 15 mg/kg was 40%.

The same assay, now with this note: Mus musculus, po; Dose: 15 mg/kg, p.o., pre-treatment time −2 h (footnotes a,c); read-out: %-Protection.
Turning to `CC(=O)OC(C)(C)C(=O)N(n1c(=O)c2cc(-c3ccnn3C)c(C(C)C)cc2n(C(=O)C(C)(C)OC(C)=O)c1=O)S(C)(=O)=O` [Example 3.11, Acetic acid 2-[3-[(2-acetoxy-2-methyl-propionyl)-methanesulfonyl-amino]-7-isopropyl-6-(2-methyl-2H-pyrazol-3-yl)-2,4-dioxo-3,4-dihydro-2H-quinazolin-1-yl]-1,1-dimethyl-2-oxo-ethyl ester], the responders at 15 mg/kg amounted to 40%.

Still in this assay, the particulars now being: Mus musculus, po; Dose: 25 mg/kg, p.o. (footnote b), pre-treatment time −1 h; read-out: %-Protection.
For `CCOC(=O)N(n1c(=O)[nH]c2cc(C(F)F)c(-c3ccnn3C(C)C)cc2c1=O)S(C)(=O)=O` [Example 6.06, [7-Difluoromethyl-6-(2-isopropyl-2H-pyrazol-3-yl)-2,4-dioxo-1,4-dihydro-2H-quinazolin-3-yl]-methanesulfonyl-carbamic acid ethyl ester], the responders at 25 mg/kg turned out to be 20%.

The same assay, now with this note: Mus musculus, sc; Dose: 25 mg/kg, s.c., pre-treatment time −4 h (footnote f); read-out: %-Protection.
`CCCCCCCCCC(=O)N(n1c(=O)[nH]c2cc(C(C)C)c(-c3ccnn3C)cc2c1=O)S(C)(=O)=O` [Example 3.15, N-Decanoyl-N-[7-isopropyl-6-(2-methyl-2H-pyrazol-3-yl)-2,4-dioxo-1,4-dihydro-2H-quinazolin-3-yl]-methanesulfonamide]: the responders at 25 mg/kg is 20%.

Staying with this assay, now noted: Mus musculus; dose of up to 50 mg/kg, p.o., 1 hour prior to induction of convulsions; read-out: %-Protection.
Turning to `CCOC(=O)N(n1c(=O)[nH]c2cc(CC)c(-c3ccnn3CC)cc2c1=O)S(C)(=O)=O` [Methanesulfonyl-[7-ethyl-6-(2-ethyl-2H-pyrazol-3-yl)-2,4-dioxo-1,4-dihydro-2H-quinazolin-3-yl]carbamic acid ethyl ester], the responders at 50 mg/kg came out at 0%.

On to `CCCCCCCCCC(=O)N(n1c(=O)[nH]c2cc(C(C)C)c(-c3ccnn3C)cc2c1=O)S(C)(=O)=O` [Example 3.15, N-Decanoyl-N-[7-isopropyl-6-(2-methyl-2H-pyrazol-3-yl)-2,4-dioxo-1,4-dihydro-2H-quinazolin-3-yl]-methanesulfonamide], for which the responders at 50 mg/kg amounted to 0%.

Regarding `CCCOC(=O)N(n1c(=O)[nH]c2cc(C(F)(F)F)c([C@H]3CCCO3)cc2c1=O)S(C)(=O)=O` [Methanesulfonyl-[(R)-2,4-Dioxo-6-tetrahydro-furan-2-yl-7-trifluoromethyl-1,4-dihydro-2H-quinazolin-3-yl]carbamic acid propyl ester], the responders at 50 mg/kg is 0%.

For the origin of these results see patent US20130053381A1, “2,4-DIOXO-1,4-DIHYDRO-2H-QUINAZOLIN-3-YL-SULFONAMIDE DERIVATIVES” (NOVARTIS AG, priority 2010, published 2013).
